Results published in PubChem BioAssay AID588611 (Sanford-Burnham Center for Chemical Genomics, 2011).
The source made the active and inactive calls.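 How the source made its calls: active means mean EC50 below 100 µM; inactive means the rest.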

Target: Intestinal-type alkaline phosphatase (Homo sapiens) (UniProt P09923)
Test: activation of human intestinal alkaline phosphatase – biochemical, luminescence, set 2, selectivity assay for mouse IAP activator project, SAR follow-up (AID 588611)
Conditions: purified human IAP, CDP-Star luminescence, 30 min

Sequence of Intestinal-type alkaline phosphatase (Homo sapiens) (P09923 whole entry, looked up): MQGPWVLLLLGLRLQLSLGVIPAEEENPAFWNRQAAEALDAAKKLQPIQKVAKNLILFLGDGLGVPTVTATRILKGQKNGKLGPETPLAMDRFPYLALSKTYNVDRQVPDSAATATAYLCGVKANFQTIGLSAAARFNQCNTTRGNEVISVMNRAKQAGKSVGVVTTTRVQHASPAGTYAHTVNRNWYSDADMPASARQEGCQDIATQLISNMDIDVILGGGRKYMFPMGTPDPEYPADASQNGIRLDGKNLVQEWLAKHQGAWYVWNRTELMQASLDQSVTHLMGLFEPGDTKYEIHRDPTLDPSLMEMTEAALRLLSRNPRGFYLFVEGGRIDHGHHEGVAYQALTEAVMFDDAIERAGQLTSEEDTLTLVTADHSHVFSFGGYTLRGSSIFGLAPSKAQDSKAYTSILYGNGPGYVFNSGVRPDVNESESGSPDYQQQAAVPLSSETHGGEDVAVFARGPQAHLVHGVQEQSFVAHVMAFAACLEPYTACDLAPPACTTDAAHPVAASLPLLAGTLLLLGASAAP

| Structure (SMILES) | EC50 |
| --- | --- |
| CCN(CC)S(=O)(=O)c1ccc(NC(=S)NC(c2ccccc2)c2ccccc2)cc1 | 63.7 µM |
| CC1CCN(S(=O)(=O)c2ccc(NC(=S)NC(c3ccccc3)c3ccccc3)cc2)CC1 | > 100 µM (inactive) |
| CN(CCc1ccccn1)C(=S)Nc1cccc(S(=O)(=O)N(C)C)c1 | > 100 µM (inactive) |
| CCN(CC)c1ccc(C(=O)NC(=S)Nc2cc(S(=O)(=O)N3CCOCC3)ccc2-n2cncn2)cc1 | > 100 µM (inactive) |
| O=S(=O)(c1ccc(NC(=S)NCCC(c2ccccc2)c2ccccc2)cc1)N1CCCC1 | 62.2 µM |
| CCN(CC)S(=O)(=O)c1ccc(NC(=S)NCCC(c2ccccc2)c2ccccc2)cc1 | 41.3 µM |
| CN(CCc1ccccc1)C(=S)Nc1cccc(S(=O)(=O)N(C)C)c1 | > 100 µM (inactive) |
| CN(C)CC(C)(C)CNC(=S)Nc1cccc(S(=O)(=O)N(C)C)c1 | > 100 µM (inactive) |
| O=C(NC(=S)Nc1cc(S(=O)(=O)N2CCOCC2)ccc1N1CCOCC1)c1ccco1 | > 100 µM (inactive) |
| Cc1ccc(S(=O)(=O)N(C)C)cc1NC(=S)NC(=O)C12CC3CC(CC(C3)C1)C2 | > 100 µM (inactive) |
| O=C(NC(=S)Nc1cc(S(=O)(=O)N2CCOCC2)ccc1O)c1ccco1 | > 100 µM (inactive) |
| O=S(=O)(c1ccc(NC(=S)NC(c2ccccc2)c2ccccc2)cc1)N1CCCC1 | 58.2 µM |
| CC1CCN(S(=O)(=O)c2ccc(NC(=S)NCC(c3ccccc3)c3ccccc3)cc2)CC1 | > 100 µM (inactive) |
| CN(C)S(=O)(=O)c1ccc(NC(=S)NC(c2ccccc2)c2ccccc2)cc1 | 62.4 µM |
| O=S(=O)(c1ccc(NC(=S)NCC(c2ccccc2)c2ccccc2)cc1)N1CCCC1 | 58.5 µM |
| CN(C)S(=O)(=O)c1ccc(NC(=S)NCc2ccc(Cl)cc2)cc1 | > 100 µM (inactive) |
| COc1ccc(CNC(=S)Nc2ccc(S(=O)(=O)N3CCCCC3)cc2)cc1OC | > 100 µM (inactive) |
| CN(C)S(=O)(=O)c1cccc(NC(=S)NCc2ccc(Cl)cc2)c1 | 75.5 µM |
| CC1CC(NC(=S)Nc2cccc(S(=O)(=O)N(C)C)c2)CC(C)N1 (centres undefined) | > 100 µM (inactive) |

| Structure (SMILES) | EC50 |
| --- | --- |
| CCN(CC)S(=O)(=O)c1ccc(NC(=S)NCC(c2ccccc2)c2ccccc2)cc1 | 55.5 µM |
| CC1CCN(S(=O)(=O)c2ccc(NC(=S)NCCC(c3ccccc3)c3ccccc3)cc2)CC1 | 53.1 µM |
| O=S(=O)(c1ccc(NC(=S)NC(c2ccccc2)c2ccccc2)cc1)N1CCCCC1 | 68.7 µM |
| O=C(CCc1ccccc1)NC(=S)Nc1cccc(S(=O)(=O)N2CCCC2)c1 | > 100 µM (inactive) |
| O=c1c2ccccc2[nH]c(=S)n1-c1cccc(S(=O)(=O)N2CCCC2)c1 | > 100 µM (inactive) |
| CN(C)S(=O)(=O)c1cccc(NC(=S)NCCC(=O)N2CCCC2)c1 | > 100 µM (inactive) |
| O=S(=O)(c1ccc(NC(=S)NCCC(c2ccccc2)c2ccccc2)cc1)N1CCCCC1 | 53 µM |
| CC(CCc1ccccc1)NC(=S)Nc1cccc(S(=O)(=O)N(C)C)c1 (centres undefined) | 69.4 µM |
| CN(C)S(=O)(=O)c1ccc(NC(=S)NCCC(c2ccccc2)c2ccccc2)cc1 | 57.2 µM |
| COc1ccc(CCNC(=S)Nc2ccc(S(=O)(=O)N3CCCCC3)cc2)cc1OC | > 100 µM (inactive) |
| CN(C)S(=O)(=O)c1cccc(NC(=S)NCCC(c2ccccc2)c2ccccc2)c1 | > 100 µM (inactive) |
| CN(C)S(=O)(=O)c1cccc(NC(=S)NC(C)(C)CC(C)(C)C)c1 | 70.7 µM |
| CC(CNC(=S)Nc1cccc(S(=O)(=O)N(C)C)c1)N1CCN(c2ccccc2)CC1 (centres undefined) | > 100 µM (inactive) |
| CN(C)S(=O)(=O)c1cccc(NC(=S)NCC(c2ccccc2)c2ccccc2)c1 | 39.4 µM |
| O=S(=O)(c1ccc(NC(=S)NCc2cccc(F)c2)cc1)N1CCCCC1 | 76.8 µM |
| O=S(=O)(c1ccc(NC(=S)NCC(c2ccccc2)c2ccccc2)cc1)N1CCCCC1 | 72.1 µM |
| Cc1ccc(C)c(NC(=S)Nc2ccc(S(=O)(=O)N3CCCCC3)cc2)c1 | > 100 µM (inactive) |
| COc1ccc(CCNC(=S)Nc2ccc(S(=O)(=O)N3CCCCC3)cc2)cc1 | 77.2 µM |
| CN(C)S(=O)(=O)c1cccc(NC(=S)NC(c2ccccc2)c2ccccc2)c1 | 34 µM |

Second part, the molecule after the results:

| EC50 | Structure (SMILES) |
| --- | --- |
| 66.6 µM | Cc1ccc(S(=O)(=O)N(C)C)cc1NC(=S)NC(C)CCC(C)C (centres undefined) |
| > 100 µM (inactive) | CN(C)S(=O)(=O)c1ccc(NC(=S)NCCc2ccccc2)cc1 |
| 82 µM | COc1cccc(CCNC(=S)Nc2cccc(S(=O)(=O)N(C)C)c2)c1 |
| > 100 µM (inactive) | Cc1ccc(S(=O)(=O)N(C)C)cc1NC(=S)NC1CCN(Cc2ccccc2)CC1 |
| > 100 µM (inactive) | Cc1ccccc1CNC(=S)Nc1ccc(S(=O)(=O)N(C)C)cc1 |
| > 100 µM (inactive) | CN(C)CCCNC(=S)Nc1cccc(S(=O)(=O)N(C)C)c1 |
| > 100 µM (inactive) | CN(C)S(=O)(=O)c1cccc(NC(=S)NCCc2ccccc2)c1 |
| > 100 µM (inactive) | CN(C)S(=O)(=O)c1ccc(NC(=S)NCCc2cccc(O)c2)cc1 |
| > 100 µM (inactive) | CCN(CC)CCCNC(=S)Nc1cccc(S(=O)(=O)N(C)C)c1 |
| > 100 µM (inactive) | CN(C)S(=O)(=O)c1cccc(NC(=S)NCCc2cccc(O)c2)c1 |
| 73.7 µM | CN(C)S(=O)(=O)c1ccc(NC(=S)NCCc2cccc(Br)c2)cc1 |
| > 100 µM (inactive) | CN(C)S(=O)(=O)c1cccc(NC(=S)NCCCn2ccnc2)c1 |
| > 100 µM (inactive) | CN(C)S(=O)(=O)c1cccc(NC(=S)NCCc2cccc(F)c2)c1 |
| > 100 µM (inactive) | CN(C)S(=O)(=O)c1cccc(NC(=S)NCCc2ccc(F)cc2)c1 |
| > 100 µM (inactive) | Cc1ccc(S(=O)(=O)N(C)C)cc1NC(=S)NCCCn1ccnc1 |
| > 100 µM (inactive) | CN(C)S(=O)(=O)c1ccc(NC(=S)NCCN2CCCC2)cc1 |
| > 100 µM (inactive) | CN(C)S(=O)(=O)c1cccc(NC(=S)NCCN2CCCC2)c1 |
| > 100 µM (inactive) | CCOc1cc(CCNC(=S)Nc2ccc(S(=O)(=O)N(C)C)cc2)ccc1OC |
| 58 µM | Cc1ccc(S(=O)(=O)N(C)C)cc1NC(=S)NC(C)CCCC(C)C (centres undefined) |
| 89.6 µM | Cc1ccc(CNC(=S)Nc2ccc(S(=O)(=O)N(C)C)cc2)cc1 |
| 84.5 µM | CN(C)S(=O)(=O)c1cccc(NC(=S)NCCc2ccc(Br)cc2)c1 |
| 65 µM | CN(C)S(=O)(=O)c1cccc(NC(=S)NCCc2cccc(Br)c2)c1 |
| > 100 µM (inactive) | COc1cccc(CNC(=S)Nc2ccc(S(=O)(=O)N(C)C)cc2)c1 |
| > 100 µM (inactive) | Cc1ccc(CNC(=S)Nc2cccc(S(=O)(=O)N(C)C)c2)cc1 |
| > 100 µM (inactive) | CN(C)S(=O)(=O)c1cccc(NC(=S)NCCCN2CCCC2=O)c1 |
| > 100 µM (inactive) | COc1ccccc1CNC(=S)Nc1ccc(S(=O)(=O)N(C)C)cc1 |
